# Reference: publication PMC8287724, “Reducing Auditory Nerve Excitability by Acute Antagonism of Ca^2+-Permeable AMPA Receptors” (Frontiers in Synaptic Neuroscience, 2021)
# Legend:
# [1] = test system: ANF postsynaptic terminals; set-up: method as in Puel et al., 1994; conditions: chemical lesion, basal cochlear turn perfusion ref Puel et al., 1994; cited from earlier work
# [2] = test system: ribbon synapses and ANF dendrites in the inner spiral plexus; assay: Apical cochlear perfusion of kainic acid, immunohistofluorescence and confocal microscopy; type: in vivo, guinea pig; conditions: 2 mM in artificial perilymph, apical perfusion of scala tympani
# Experimental: Following cardiac perfusion of 4% PFA in 0.1 M phosphate buffer and cervical dislocation, the temporal bone was immediately harvested, and the cochlea was isolated. Each cochlea was post-fixed for 20 min at 4°C in a dish with 4% PFA, where a small fenestration was made in the round window, oval window, and the apex of each cochlea to gently flush with 1 mL of fixative. Each cochlea was then decalcified in 10% EDTA at room temperature for 6 h, exchanging EDTA every 2 h. The decalcified outer bone was removed to reveal the underlying cochlear spiral. Small pieces of cochlear turns were placed in buffer overnight at 4°C in Triton X-100 with donkey serum. […]
# The method of apical intracochlear drug delivery has previously been well-detailed (Lichtenhan et al., [2016a]). […] Response waveforms were recorded immediately prior to apical drug perfusion to establish a baseline, throughout perfusion which took 6 min, and then immediately after perfusion, from a round window electrode. […]
# [3] = test system: cochlear afferent synapses; set-up: method as in earlier work; conditions: ref Robertson, 1983; Puel et al., 1998; Furman et al., 2013; Hickman et al., 2020; cited from earlier work
smiles,measurement,setting,value
NC(CCCP(=O)(O)O)C(=O)O [D-AP5],effect of pre-perfusion on ANF terminal swelling,[1],not
O=c1[nH]c2cc([N+](=O)[O-])c([N+](=O)[O-])cc2[nH]c1=O [DNQX],effect of pre-perfusion on ANF terminal swelling,[1],prevented
"C=C(C)[C@H]1CN[C@H](C(=O)O)[C@H]1CC(=O)O [KA, kainic acid]",effect on innervation and ribbon synapses,[2],void of innervation in the ISP and ribbon synapse disintegration
O=C(O)c1cc(=O)c2ccccc2[nH]1 [kynurenic acid],effect on synapse loss and osmotic damage after synaptopathic noise exposure,[3],blocked
